Here are results for 32 compounds from ChEMBL document CHEMBL3879915, “Methods of inhibiting PRMT5” (2014).

A word on the IC50: it is the concentration that gives 50% inhibition. Usually EC50 stands for the concentration needed to bring the measured effect to its halfway point.

The target of assay [1] is PRMT5/MEP50 complex (Homo sapiens, UniProt O14744). Nature of the assay: Inhibition of recombinant human fetal brain FLAG-tagged PRMT5/full length human testis 6His-tagged MEP50 expressed in baculovirus infected insect Sf9 cells using human histone H4 (1 to 15 residues) as substrate preincubated for 30 mins followed by [3H]-SAM addition.
The nature of assay [2]: Antiproliferative activity against human Z138 cells assessed as inhibition of cell viability after 5 days by Cell-Titer Glo assay. In kind it is functional, cell-based. The settings on record: Z-138, 120 h.
Assay [3] addresses Protein arginine N-methyltransferase 5 (Homo sapiens, UniProt O14744). The assay can be described thus: Inhibition of PRMT5 in human Z138 cells assessed as decrease in di-methyl arginine levels after 96 hrs by Western blot method. In kind it is cell-based. On the technique in general: A western blot detects proteins with antibodies after separation by electrophoresis.

Sequence of PRMT5/MEP50 complex (O14744 whole entry, the tested form may be a part): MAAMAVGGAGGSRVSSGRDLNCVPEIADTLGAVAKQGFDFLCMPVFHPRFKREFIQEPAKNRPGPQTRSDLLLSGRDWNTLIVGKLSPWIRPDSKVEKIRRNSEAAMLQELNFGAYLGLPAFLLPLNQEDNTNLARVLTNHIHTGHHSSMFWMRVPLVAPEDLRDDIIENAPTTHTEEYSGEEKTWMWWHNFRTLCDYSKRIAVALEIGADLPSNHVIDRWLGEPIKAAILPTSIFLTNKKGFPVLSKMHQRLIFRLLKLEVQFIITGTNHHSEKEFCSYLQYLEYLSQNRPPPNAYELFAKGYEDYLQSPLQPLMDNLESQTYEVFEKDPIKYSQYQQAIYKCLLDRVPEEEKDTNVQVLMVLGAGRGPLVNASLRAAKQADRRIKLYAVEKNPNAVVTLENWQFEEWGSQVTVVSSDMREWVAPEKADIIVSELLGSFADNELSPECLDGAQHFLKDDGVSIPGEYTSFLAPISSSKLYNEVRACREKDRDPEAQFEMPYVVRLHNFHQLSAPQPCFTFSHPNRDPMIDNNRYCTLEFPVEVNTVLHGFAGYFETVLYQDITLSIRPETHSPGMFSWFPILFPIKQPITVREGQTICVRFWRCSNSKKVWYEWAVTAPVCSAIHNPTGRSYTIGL
Sequence of PRMT5/MEP50 complex (Q9BQA1 whole entry, further chain, the tested form may be a part): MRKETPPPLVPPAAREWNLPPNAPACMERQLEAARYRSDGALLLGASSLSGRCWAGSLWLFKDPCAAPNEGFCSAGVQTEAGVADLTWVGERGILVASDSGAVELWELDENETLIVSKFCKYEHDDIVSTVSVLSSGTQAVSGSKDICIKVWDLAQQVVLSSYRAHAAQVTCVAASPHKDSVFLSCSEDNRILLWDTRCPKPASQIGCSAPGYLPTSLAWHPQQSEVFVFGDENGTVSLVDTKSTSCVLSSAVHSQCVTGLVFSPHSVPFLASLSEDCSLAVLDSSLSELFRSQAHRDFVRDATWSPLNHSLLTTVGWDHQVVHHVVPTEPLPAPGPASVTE
Sequence of Protein arginine N-methyltransferase 5 (O14744 whole entry): as the sequence (O14744 whole entry, the tested form may be a part) above

With `OC(COCc1ccccc1)CN1CCc2ccccc2C1` (configuration not stated), the IC50 in assay [1] is 10 to 40 µM. In addition, the EC50 in assay [2] is greater than 40 µM.
Regarding `CCN(c1cccc(C(=O)NCC(O)CN2CCc3ccccc3C2)c1)C1CCOCC1` (configuration not stated), the IC50 in assay [1] lay in the range of 0.101 to 1 µM. The EC50 in assay [3] lay in the range of 0.101 to 1 µM.
Turning to `CC(=O)Nc1ccc(OCC(=O)NCC(O)CN2CCc3ccccc3C2)cc1` (configuration not stated), the IC50 in assay [1] was 0.101 to 1 µM. Moreover, the concentration giving a half-maximal response (EC50) in assay [3] was 0.101 to 1 µM; in assay [2] it was greater than 20 µM.
For the compound `COc1cccc(OCC(=O)NCC(O)CN2CCc3ccccc3C2)c1` (configuration not stated), the IC50 in assay [1] was less than 0.1 µM. Besides, the half-maximal effective concentration (EC50) in assay [3] fell in the range of 0.101 to 1 µM; in assay [2] it was 1 to 10 µM.
The matching figures for `CC(Oc1ccccc1)C(=O)NCC(O)CN1CCc2ccccc2C1` (configuration not stated): less than 0.1 µM, 0.101 to 1 µM and 1 to 10 µM.
On to `O=C(COc1ccccc1)NCC(O)CN1CCc2ccccc2C1` (configuration not stated), for which the IC50 in assay [1] lay in the range of 0.101 to 1 µM. The EC50 in assay [3] was 0.101 to 1 µM.
For the compound `COc1ccccc1OCC(=O)NCC(O)CN1CCc2ccccc2C1` (configuration not stated), in assay [1], the IC50 is less than 0.1 µM. In addition, the EC50 in assay [3] lay in the range of 0.101 to 1 µM; in assay [2], 1 to 10 µM.
Regarding `N#Cc1ccc(OCC(=O)NCC(O)CN2CCc3ccccc3C2)cc1` (configuration not stated), in assay [1], the IC50 fell in the range of 0.101 to 1 µM. In addition, the figures for the EC50 in assay [3] and in assay [2] were 0.101 to 1 µM and 10 to 50 µM, respectively.
Take `Cn1ncc2ccc(OCC(=O)NCC(O)CN3CCc4ccccc4C3)cc21` (configuration not stated): the half-inhibitory concentration (IC50) in assay [1] was less than 0.1 µM. For the same compound, the 50% effective concentration (EC50) fell in the range of 0.101 to 1 µM in assay [3] and 1 to 10 µM in assay [2].
Regarding `Cn1cnc2ccc(OCC(=O)NCC(O)CN3CCc4ccccc4C3)cc21` (configuration not stated), the EC50 lay within 0.101 to 1 µM in assay [3] and 10 to 50 µM in assay [2].
In the case of `OC(COc1cccc(CNC2CCCC2)c1)CN1Cc2ccccc2C1` (configuration not stated), in assay [1], the IC50 fell in the range of 1 to 10 µM. Further, the EC50 in assay [2] fell in the range of 10 to 50 µM.
`O=C(COc1ccccc1S(=O)(=O)N1CCOCC1)NCC(O)CN1CCc2ccccc2C1` (configuration not stated): the IC50 in assay [1] was less than 0.1 µM. The EC50 in assay [3] was 0.101 to 1 µM.
In the case of `Cc1cccc(OCC(=O)NCC(O)CN2CCc3ccccc3C2)c1` (configuration not stated), the IC50 in assay [1] is less than 0.1 µM. Moreover, the EC50 was 0.101 to 1 µM in assay [3] and 1 to 10 µM in assay [2].
Regarding `O=C(COc1ccccc1N1CCOCC1)NC[C@@H](O)CN1CCc2ccccc2C1`, the IC50 in assay [1] was in the range of 0.101 to 1 µM. The EC50 in assay [3] was 0.101 to 1 µM.
For the compound `O=C(COc1ccccc1C1CCCCC1)NCC(O)CN1CCc2ccccc2C1` (configuration not stated), in assay [1], the IC50 is less than 0.1 µM. Also, the EC50 in assay [3] lay within 0.101 to 1 µM; in assay [2] it was 1 to 10 µM.
For `O=C(CNc1ccccc1)NCC(O)CN1CCc2ccccc2C1` (configuration not stated), the IC50 in assay [1] fell in the range of 1 to 10 µM. Further, the results for the EC50 in assay [3] and in assay [2] were 1 to 10 µM and greater than 20 µM, respectively.
Take `O=C(COc1ccccc1)NC[C@H](O)CN1CCc2ccccc2C1`: the IC50 in assay [1] was 0.101 to 1 µM. Further, the results for the EC50 in assay [3] and in assay [2] were 0.101 to 1 µM and 10 to 50 µM, respectively.
On to `O=C(NCC(O)CN1Cc2ccccc2C1)c1cccc(NC2CCOCC2)c1` (configuration not stated), for which the 50% inhibitory concentration (IC50) in assay [1] fell in the range of 0.101 to 1 µM. For the same compound, the concentration giving a half-maximal response (EC50) in assay [3] lay within 0.101 to 1 µM.
`N#CCc1cccc(-c2cccc(OCC(O)CN3CCc4ccccc4C3)c2)c1` (configuration not stated): the IC50 in assay [1] was in the range of 0.101 to 1 µM. In addition, the EC50 in assay [3] lay within 1 to 10 µM.
As for `N#Cc1ccccc1OCC(=O)NCC(O)CN1CCc2ccccc2C1` (configuration not stated), the IC50 in assay [1] was 0.101 to 1 µM. The values for the EC50 in assay [3] and in assay [2] were 0.101 to 1 µM and 10 to 50 µM, respectively.
In the case of `CN1CCN(c2ccccc2OCC(=O)NC[C@@H](O)CN2CCc3ccccc3C2)CC1`, the IC50 in assay [1] lay in the range of 1 to 10 µM. For the same compound, the EC50 in assay [3] is 1 to 10 µM.
With `O=C(COc1cccc2cccnc12)NCC(O)CN1CCc2ccccc2C1` (configuration not stated), the IC50 in assay [1] is less than 0.1 µM. Moreover, the EC50 in assay [3] is less than 0.1 µM; in assay [2], 0.101 to 1 µM.
For `COc1cc(Cl)cc(-c2cccc(OCC(O)CN3CCc4ccccc4C3)c2)c1` (configuration not stated), the half-maximal inhibitory concentration (IC50) in assay [1] lay in the range of 0.101 to 1 µM. The concentration for a half-maximal effect (EC50) in assay [3] was greater than 20 µM.
Turning to `CC(C)(C)OC(=O)Nc1cccc(C(=O)NCC(O)CN2Cc3ccccc3C2)c1` (configuration not stated), the IC50 in assay [1] was 0.101 to 1 µM. For the same compound, in assay [3], the EC50 was in the range of 1 to 10 µM.
As to `Cc1ccccc1OCC(=O)NCC(O)CN1CCc2ccccc2C1` (configuration not stated), the IC50 in assay [1] was 0.101 to 1 µM. The EC50 in assay [3] lay in the range of 0.101 to 1 µM; in assay [2], 1 to 10 µM.
On to `O=C(NC[C@@H](O)CN1CCc2ccccc2C1)Oc1ccccc1`, for which, in assay [1], the IC50 is less than 0.1 µM. Besides, the EC50 in assay [3] is 1 to 10 µM.
Consider `O=C(COc1cccc(F)c1)NCC(O)CN1CCc2ccccc2C1` (configuration not stated), for which the IC50 in assay [1] was in the range of 0.101 to 1 µM. Also, the values for the EC50 in assay [3] and in assay [2] were 0.101 to 1 µM and 10 to 50 µM, respectively.
`CN(C)c1ccccc1OCC(=O)NCC(O)CN1CCc2ccccc2C1` (configuration not stated): the IC50 in assay [1] was less than 0.1 µM. Besides, the EC50 in assay [3] is less than 0.1 µM; in assay [2], 1 to 10 µM.
With `CS(=O)(=O)c1ccccc1OCC(=O)NCC(O)CN1Cc2ccccc2C1` (configuration not stated), the IC50 in assay [1] fell in the range of 0.101 to 1 µM. In addition, the EC50 in assay [3] was 0.101 to 1 µM.
In the case of `CS(=O)(=O)c1ccccc1OCC(=O)NCC(O)CN1CCc2ccccc2C1` (configuration not stated), the IC50 in assay [1] is less than 0.1 µM. The EC50 in assay [3] is less than 0.1 µM; in assay [2] it was 1 to 10 µM.
`CS(=O)(=O)Nc1cccc(OCC(=O)NCC(O)CN2CCc3ccccc3C2)c1` (configuration not stated): the concentration for half-maximal inhibition (IC50) in assay [1] is less than 0.1 µM. The EC50 in assay [3] fell in the range of 0.101 to 1 µM; in assay [2] it was 1 to 10 µM.
On to `CC(=O)Nc1ccccc1OCC(=O)NCC(O)CN1CCc2ccccc2C1` (configuration not stated), for which the 50% inhibitory concentration (IC50) in assay [1] lay within 0.101 to 1 µM. Further, the figures for the EC50 in assay [3] and in assay [2] were 0.101 to 1 µM and greater than 20 µM, respectively.
